Measurements taken from patent US20130157954A1, “METHODS FOR TREATMENT OR PROPHYLAXIS OF KIDNEY OR LIVER DYSFUNCTION” (NPS PHARMACEUTICALS, INC., priority 2010, published 2013).

Test: Example 1: liver biomarkers (total bilirubin, ALT, AST, ALP) in short bowel syndrome patients, every four weeks for 24 weeks; also sorted by >5% change from baseline
Type: in vivo, Human
Parameters: AST (SGOT) Change from Baseline Median / ALT (SGPT) Median / TOTAL BILIRUBIN Median / TOTAL BILIRUBIN Change from Baseline Median / ALT (SGPT) Change from Baseline Median / AST (SGOT) Median: unit not given here
Settings: for ALKALINE PHOSPHATASE change from baseline −5% <= and <=5%, percent of patients / ALT (SGPT) change from baseline <−5%, number of patients / ALT (SGPT) change from baseline <−5%, percent of patients / ALT (SGPT) change from baseline >5%, number of patients / ALT (SGPT) change from baseline >5%, percent of patients / ALT (SGPT) change from baseline −5% <= and <=5%, number of patients / ALT (SGPT) change from baseline −5% <= and <=5%, percent of patients / AST (SGOT) change from baseline <−5%, number of patients / AST (SGOT) change from baseline <−5%, percent of patients / AST (SGOT) change from baseline >5%, number of patients / AST (SGOT) change from baseline >5%, percent of patients / AST (SGOT) change from baseline −5% <= and <=5%, number of patients / AST (SGOT) change from baseline −5% <= and <=5%, percent of patients / TOTAL BILIRUBIN change from baseline <−5%, number of patients / TOTAL BILIRUBIN change from baseline <−5%, percent of patients / TOTAL BILIRUBIN change from baseline >5%, number of patients / TOTAL BILIRUBIN change from baseline >5%, percent of patients / TOTAL BILIRUBIN change from baseline −5% <= and <=5%, number of patients / TOTAL BILIRUBIN change from baseline −5% <= and <=5%, percent of patients / ALKALINE PHOSPHATASE change from baseline <−5%, number of patients / ALKALINE PHOSPHATASE change from baseline <−5%, percent of patients / ALKALINE PHOSPHATASE change from baseline >5%, number of patients / ALKALINE PHOSPHATASE change from baseline >5%, percent of patients / ALKALINE PHOSPHATASE change from baseline −5% <= and <=5%, number of patients: 0.05 mg/kg/day
Protocol: Human patients with short bowel syndrome were divided into three groups: a control group (16 total individuals) to receive placebo, an experimental group (35 total individuals) to receive teduglutide at 0.05 mg/kg/day throughout the study, and an experimental group (32 total individuals) to receive teduglutide at 0.1 mg/kg/day throughout the study. Patients were treated by subcutaneous injection of placebo or the appropriate dose of teduglutide. As individuals with short bowel syndrome are likely to experience associated liver and kidney disease, known biomarkers of liver and kidney function were monitored every four weeks, for 24 weeks. The liver biomarkers tested included total bilirubin, ALT and AST and ALP. The kidney biomarkers tested included urea nitrogen, creatinine and GFR. Before administration of placebo or teduglutide, diagnostic biomarker levels were tested to establish a baseline for each individual.
To visualize the effect of GLP-2 on the levels of the diagnostic biomarkers, the average change from baseline was calculated for the placebo and teduglutide treated groups for each visit after a baseline was established. The average change from baseline of each group is depicted in FIGS. 1-7. The numerical figures for each diagnostic biomarker at each time point are depicted in Table 1.
The efficacy of teduglutide in treating liver dysfunction was further tested by sorting the data into two groups: individuals with abnormal baseline values of liver diagnostic biomarkers; and individuals with normal baseline values of liver diagnostic biomarkers. The mean diagnostic biomarker change from baseline for these two groups is shown for ALT (FIGS. 5 and 6) and AST (FIGS. 7 and 8). […] These changes were significant when compared to baseline levels for the group, and when compared to placebo (see FIGS. 5 and 7).
The raw data for this sorting is reproduced in Table 2 below.

CC[C@H](C)[C@H](NC(=O)[C@H](Cc1ccccc1)NC(=O)[C@H](CC(=O)O)NC(=O)[C@H](CCCNC(=N)N)NC(=O)[C@H](C)NC(=O)[C@H](C)NC(=O)[C@H](CC(C)C)NC(=O)[C@H](CC(N)=O)NC(=O)[C@H](CC(=O)O)NC(=O)[C@H](CC(C)C)NC(=O)[C@@H](NC(=O)[C@@H](NC(=O)[C@H](CC(N)=O)NC(=O)[C@H](CCSC)NC(=O)[C@H](CCC(=O)O)NC(=O)[C@H](CC(=O)O)NC(=O)[C@H](CO)NC(=O)[C@H](Cc1ccccc1)NC(=O)[C@H](CO)NC(=O)CNC(=O)[C@H](CC(=O)O)NC(=O)CNC(=O)[C@@H](N)Cc1c[nH]cn1)[C@@H](C)O)[C@@H](C)CC)C(=O)N[C@@H](CC(N)=O)C(=O)N[C@@H](Cc1c[nH]c2ccccc12)C(=O)N[C@@H](CC(C)C)C(=O)N[C@H](C(=O)N[C@@H](CCC(N)=O)C(=O)N[C@H](C(=O)N[C@@H](CCCCN)C(=O)N[C@H](C(=O)N[C@H](C(=O)N[C@@H](CC(=O)O)C(=O)O)[C@@H](C)O)[C@@H](C)CC)[C@@H](C)O)[C@@H](C)CC [teduglutide]
ALKALINE PHOSPHATASE change from baseline −5% <= and <=5%, percent of patients (week 12): (5.7%)
ALT (SGPT) change from baseline <−5%, number of patients (week 12): 19
ALT (SGPT) change from baseline <−5%, percent of patients (week 12): (54.3%)
ALT (SGPT) change from baseline >5%, number of patients (week 12): 4
ALT (SGPT) change from baseline >5%, percent of patients (week 12): (11.4%)
ALT (SGPT) change from baseline −5% <= and <=5%, number of patients (week 12): 4
ALT (SGPT) change from baseline −5% <= and <=5%, percent of patients (week 12): (11.4%)
AST (SGOT) change from baseline <−5%, number of patients (week 12): 19
AST (SGOT) change from baseline <−5%, percent of patients (week 12): (54.3%)
AST (SGOT) change from baseline >5%, number of patients (week 12): 5
AST (SGOT) change from baseline >5%, percent of patients (week 12): (14.3%)
AST (SGOT) change from baseline −5% <= and <=5%, number of patients (week 12): 3
AST (SGOT) change from baseline −5% <= and <=5%, percent of patients (week 12): (8.6%)
TOTAL BILIRUBIN change from baseline <−5%, number of patients (week 12): 14
TOTAL BILIRUBIN change from baseline <−5%, percent of patients (week 12): (40.0%)
TOTAL BILIRUBIN change from baseline >5%, number of patients (week 12): 6
TOTAL BILIRUBIN change from baseline >5%, percent of patients (week 12): (17.1%)
TOTAL BILIRUBIN change from baseline −5% <= and <=5%, number of patients (week 12): 4
TOTAL BILIRUBIN change from baseline −5% <= and <=5%, percent of patients (week 12): (11.4%)
ALKALINE PHOSPHATASE change from baseline <−5%, number of patients (week 16): 20
ALKALINE PHOSPHATASE change from baseline <−5%, percent of patients (week 16): (57.1%)
ALKALINE PHOSPHATASE change from baseline >5%, number of patients (week 16): 6
ALKALINE PHOSPHATASE change from baseline >5%, percent of patients (week 16): (17.1%)
ALKALINE PHOSPHATASE change from baseline −5% <= and <=5%, number of patients (week 16): 2
ALKALINE PHOSPHATASE change from baseline −5% <= and <=5%, percent of patients (week 16): (5.7%)
ALT (SGPT) change from baseline <−5%, number of patients (week 16): 16
ALT (SGPT) change from baseline <−5%, percent of patients (week 16): (45.7%)
ALT (SGPT) change from baseline >5%, number of patients (week 16): 12
ALT (SGPT) change from baseline >5%, percent of patients (week 16): (34.3%)
ALT (SGPT) change from baseline −5% <= and <=5%, number of patients (week 16): 0
ALT (SGPT) change from baseline −5% <= and <=5%, percent of patients (week 16): (0.0%)
AST (SGOT) change from baseline <−5%, number of patients (week 16): 14
AST (SGOT) change from baseline <−5%, percent of patients (week 16): (40.0%)
AST (SGOT) change from baseline >5%, number of patients (week 16): 8
AST (SGOT) change from baseline >5%, percent of patients (week 16): (22.9%)
AST (SGOT) change from baseline −5% <= and <=5%, number of patients (week 16): 6
AST (SGOT) change from baseline −5% <= and <=5%, percent of patients (week 16): (17.1%)
TOTAL BILIRUBIN change from baseline <−5%, number of patients (week 16): 14
TOTAL BILIRUBIN change from baseline <−5%, percent of patients (week 16): (40.0%)
TOTAL BILIRUBIN change from baseline >5%, number of patients (week 16): 9
TOTAL BILIRUBIN change from baseline >5%, percent of patients (week 16): (25.7%)
TOTAL BILIRUBIN change from baseline −5% <= and <=5%, number of patients (week 16): 3
TOTAL BILIRUBIN change from baseline −5% <= and <=5%, percent of patients (week 16): (8.6%)
ALKALINE PHOSPHATASE change from baseline <−5%, number of patients (week 20): 22
ALKALINE PHOSPHATASE change from baseline <−5%, percent of patients (week 20): (62.9%)
ALKALINE PHOSPHATASE change from baseline >5%, number of patients (week 20): 4
ALKALINE PHOSPHATASE change from baseline >5%, percent of patients (week 20): (11.4%)
ALKALINE PHOSPHATASE change from baseline −5% <= and <=5%, number of patients (week 20): 1
ALKALINE PHOSPHATASE change from baseline −5% <= and <=5%, percent of patients (week 20): (2.9%)
ALT (SGPT) change from baseline <−5%, number of patients (week 20): 17
ALT (SGPT) change from baseline <−5%, percent of patients (week 20): (48.6%)
ALT (SGPT) change from baseline >5%, number of patients (week 20): 9
ALT (SGPT) change from baseline >5%, percent of patients (week 20): (25.7%)
ALT (SGPT) change from baseline −5% <= and <=5%, number of patients (week 20): 1
ALT (SGPT) change from baseline −5% <= and <=5%, percent of patients (week 20): (2.9%)
AST (SGOT) change from baseline <−5%, number of patients (week 20): 17
AST (SGOT) change from baseline <−5%, percent of patients (week 20): (48.6%)
AST (SGOT) change from baseline >5%, number of patients (week 20): 6
AST (SGOT) change from baseline >5%, percent of patients (week 20): (17.1%)
AST (SGOT) change from baseline −5% <= and <=5%, number of patients (week 20): 4
AST (SGOT) change from baseline −5% <= and <=5%, percent of patients (week 20): (11.4%)
TOTAL BILIRUBIN change from baseline <−5%, number of patients (week 20): 12
TOTAL BILIRUBIN change from baseline <−5%, percent of patients (week 20): (34.3%)
TOTAL BILIRUBIN change from baseline >5%, number of patients (week 20): 7
TOTAL BILIRUBIN change from baseline >5%, percent of patients (week 20): (20.0%)
TOTAL BILIRUBIN change from baseline −5% <= and <=5%, number of patients (week 20): 6
TOTAL BILIRUBIN change from baseline −5% <= and <=5%, percent of patients (week 20): (17.1%)
ALKALINE PHOSPHATASE change from baseline <−5%, number of patients (week 24): 21
ALKALINE PHOSPHATASE change from baseline <−5%, percent of patients (week 24): (60.0%)
ALKALINE PHOSPHATASE change from baseline >5%, number of patients (week 24): 4
ALKALINE PHOSPHATASE change from baseline >5%, percent of patients (week 24): (11.4%)
ALKALINE PHOSPHATASE change from baseline −5% <= and <=5%, number of patients (week 24): 0
ALKALINE PHOSPHATASE change from baseline −5% <= and <=5%, percent of patients (week 24): (0.0%)
ALT (SGPT) change from baseline <−5%, number of patients (week 24): 18
ALT (SGPT) change from baseline <−5%, percent of patients (week 24): (51.4%)
ALT (SGPT) change from baseline >5%, number of patients (week 24): 4
ALT (SGPT) change from baseline >5%, percent of patients (week 24): (11.4%)
ALT (SGPT) change from baseline −5% <= and <=5%, number of patients (week 24): 4
ALT (SGPT) change from baseline −5% <= and <=5%, percent of patients (week 24): (11.4%)
AST (SGOT) change from baseline <−5%, number of patients (week 24): 17
AST (SGOT) change from baseline <−5%, percent of patients (week 24): (48.6%)
AST (SGOT) change from baseline >5%, number of patients (week 24): 6
AST (SGOT) change from baseline >5%, percent of patients (week 24): (17.1%)
AST (SGOT) change from baseline −5% <= and <=5%, number of patients (week 24): 3
AST (SGOT) change from baseline −5% <= and <=5%, percent of patients (week 24): (8.6%)
TOTAL BILIRUBIN change from baseline <−5%, number of patients (week 24): 8
TOTAL BILIRUBIN change from baseline <−5%, percent of patients (week 24): (22.9%)
TOTAL BILIRUBIN change from baseline >5%, number of patients (week 24): 10
TOTAL BILIRUBIN change from baseline >5%, percent of patients (week 24): (28.6%)
TOTAL BILIRUBIN change from baseline −5% <= and <=5%, number of patients (week 24): 4
TOTAL BILIRUBIN change from baseline −5% <= and <=5%, percent of patients (week 24): (11.4%)
ALT (SGPT) Change from Baseline Median (0.10 mg/kg/day, DW4): −6.5
ALT (SGPT) Median (0.10 mg/kg/day, DW4): 30.0
